Laboratory results published in patent US20260334439A1, “BCAT2 INHIBITORS” (Agios Pharmaceuticals, Inc., priority 2023, published 2026).

Target: T1, BCAT2 (Homo sapiens, UniProt O15382)
T1 sequence (O15382 28-392): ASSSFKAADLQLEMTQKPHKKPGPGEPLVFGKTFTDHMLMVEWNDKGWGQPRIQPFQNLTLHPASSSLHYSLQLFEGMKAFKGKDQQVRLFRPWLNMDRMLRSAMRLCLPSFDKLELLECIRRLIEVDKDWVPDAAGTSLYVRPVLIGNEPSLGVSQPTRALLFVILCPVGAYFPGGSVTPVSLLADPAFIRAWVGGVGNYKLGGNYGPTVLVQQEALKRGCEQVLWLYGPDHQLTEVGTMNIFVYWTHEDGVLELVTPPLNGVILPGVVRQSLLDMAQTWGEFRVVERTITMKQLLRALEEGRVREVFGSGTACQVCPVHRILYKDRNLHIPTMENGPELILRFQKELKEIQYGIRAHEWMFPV
Assay: BCAT2 in vitro enzyme inhibition assay (hBCAT2, glutamate dehydrogenase/diaphorase/resazurin coupled fluorescence read)
Assay type: biochemical
Details: hBCAT2, 1 h preincubation at 25° C., one hour reaction; average where tested multiple times
Method in brief: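 Coupled GDH/diaphorase/resazurin fluorescence (Ex 540/Em 590) read after 1 h reaction at 25 °C, SDS-stopped; enzyme (0.33 μg/mL in mix) first preincubated 1 h with compound, 10-point 3-fold series from 100 μM final, Tris pH 8.0 buffer with NaCl, BSA; technical duplicates, averaged across tests.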

SMILES	IC50 [nM]
CC(C)Cc1nc2cnc(-c3nc[nH]n3)cc2n1[C@@H]1CCC[C@H](NC(=O)c2cc(F)ccc2F)[C@H]1O [Example 121, 2,5-difluoro-N-((1S,2R,3R)-2-hydroxy-3-(2-isobutyl-6-(1H-1,2,4-triazol-3-yl)-1H-imidazo[4,5-c]pyridin-1-yl)cyclohexyl)benzamide]	100 to 500
N#Cc1ccccc1-c1nc2cnc(-c3nc[nH]n3)cc2n1[C@@H]1CCC[C@H](N2COc3ccc(Cl)cc3C2=O)C1 [Example 203, 2-(1-((1R,3S)-3-(6-chloro-4-oxo-2H-benzo[e][1,3]oxazin-3(4H)-yl)cyclohexyl)-6-(1H-1,2,4-triazol-3-yl)-1H-imidazo[4,5-c]pyridin-2-yl)benzonitrile]	< 100
CN1C[C@@H](NC(=O)c2cc(Cl)ccn2)C[C@@H](n2c(-c3ccccc3OCCO)nc3cnc(-c4ncccn4)cc32)C1 [Example 165, 4-chloro-N-((3S,5R)-5-(2-(2-(2-hydroxyethoxy)phenyl)-6-(pyrimidin-2-yl)-1H-imidazo[4,5-c]pyridin-1-yl)-1-methylpiperidin-3-yl)picolinamide]	< 100
COc1ccc(Cl)cc1C(=O)N[C@@H]1C[C@@H](OC)C[C@H](n2c(-c3ccccc3F)nc3cnc(-c4nc[nH]n4)cc32)C1 [Example 107, 5-chloro-N-((1S,3R,5R)-3-(2-(2-fluorophenyl)-6-(1H-1,2,4-triazol-3-yl)-1H-imidazo[4,5-c]pyridin-1-yl)-5-methoxycyclohexyl)-2-methoxybenzamide]	> 1000
O=C1c2cc(Cl)ccc2OCCN1[C@H]1CCC[C@@H](n2c(-c3ccccc3F)nc3cnc(-c4nc[nH]n4)cc32)C1 [Example 216, 7-chloro-4-((1S,3R)-3-(2-(2-fluorophenyl)-6-(1H-1,2,4-triazol-3-yl)-1H-imidazo[4,5-c]pyridin-1-yl)cyclohexyl)-3,4-dihydrobenzo[f][1,4]oxazepin-5(2H)-one]	> 1000
O=C(N[C@H]1CCC[C@@H](n2c(-c3ncccc3OC(F)F)nc3cnc(-c4nc[nH]n4)cc32)C1)c1cc(F)ccn1 [compound 63]	< 100
O=C(N[C@@H]1C[C@H](n2c(-c3ccccc3OCCO)nc3ccc(-c4nc[nH]n4)cc32)CC(F)(F)C1)c1cc(F)ccn1 [Example 231, N-((1R,5S)-3,3-difluoro-5-(2-(2-(2-hydroxyethoxy)phenyl)-6-(1H-1,2,4-triazol-3-yl)-1H-benzo[d]imidazol-1-yl)cyclohexyl)-4-fluoropicolinamide]	< 100
O=C(N[C@H]1CCC[C@@H](n2c(-c3ncccc3OC(F)F)nc3cnc(-c4nc[nH]n4)cc32)C1)c1cc(Cl)ccc1OC(F)F [compound 66]	< 100
N#Cc1ccccc1-c1nc2cnc(-c3nc[nH]n3)cc2n1[C@@H]1CCC[C@H](NC(=O)c2cc(F)ccn2)C1 [Example 46, N-((1S,3R)-3-(2-(2-cyanophenyl)-6-(1H-1,2,4-triazol-3-yl)-1H-imidazo[4,5-c]pyridin-1-yl)cyclohexyl)-4-fluoropicolinamide]	< 100
O=C(N[C@H]1CCC[C@@H](n2c(-c3ccccc3F)nc3cnc(-c4nc[nH]n4)cc32)[C@@H]1O)c1cc(Cl)ccn1 [Example 103, 4-chloro-N-((1S,2R,3R)-3-(2-(2-fluorophenyl)-6-(1H-1,2,4-triazol-3-yl)-1H-imidazo[4,5-c]pyridin-1-yl)-2-hydroxycyclohexyl)picolinamide]	< 100
O=C(N[C@H]1CCC[C@@H](n2c(-c3ncccc3OC(F)F)nc3cnc(-c4ncn[nH]4)cc32)C1)c1cc(O)ccc1Cl [compound 97]	< 100
CN1C[C@@H](N2Cc3ccc(F)cc3C2=O)C[C@@H](n2c(-c3ccccc3OCCO)nc3cnc(-c4nc[nH]n4)cc32)C1 [Example 198, 6-fluoro-2-((3S,5R)-5-(2-(2-(2-hydroxyethoxy)phenyl)-6-(1H-1,2,4-triazol-3-yl)-1H-imidazo[4,5-c]pyridin-1-yl)-1-methylpiperidin-3-yl)isoindolin-1-one]	100 to 500
CO[C@H]1C[C@H](NC(=O)c2cc(F)ccc2F)C[C@H](n2c(-c3ccccc3OCCO)nc3cnc(-c4ncco4)cc32)C1 [Example 123, 2,5-difluoro-N-((1R,3S,5S)-3-(2-(2-(2-hydroxyethoxy)phenyl)-6-(oxazol-2-yl)-1H-imidazo[4,5-c]pyridin-1-yl)-5-methoxycyclohexyl)benzamide]	< 100
O=C(N[C@H]1CCC[C@@H](n2c(-c3ncccc3OC(F)F)nc3cnc(-c4nc[nH]n4)cc32)C1)c1cc(F)ccc1F [compound 61]	< 100
CC(C)(C#N)Cc1nc2cnc(-c3nc[nH]n3)cc2n1[C@@H]1CCC[C@H](NC(=O)c2cc(Cl)ccn2)C1 [Example 43, 4-chloro-N-((1S,3R)-3-(2-(2-cyano-2-methylpropyl)-6-(1H-1,2,4-triazol-3-yl)-1H-imidazo[4,5-c]pyridin-1-yl)cyclohexyl)picolinamide]	500 to 1000
CS(=O)(=O)c1ccc(Cl)cc1C(=O)N[C@H]1CCC[C@@H](n2c(-c3ccccc3F)nc3cnc(-c4nc[nH]n4)cc32)C1 [Example 12, 5-chloro-N-((1S,3R)-3-(2-(2-fluorophenyl)-6-(1H-1,2,4-triazol-3-yl)-1H-imidazo[4,5-c]pyridin-1-yl)cyclohexyl)-2-(methylsulfonyl)benzamide]	> 1000
O=C(N[C@H]1CCC[C@@H](n2c(-c3ccccc3OC3CCOC3)nc3cnc(-c4nc[nH]n4)cc32)C1)c1cc(Cl)ccn1 (stereo partly drawn) [Example 87, 4-chloro-N-((1S,3R)-3-(2-(2-((tetrahydrofuran-3-yl)oxy)phenyl)-6-(1H-1,2,4-triazol-3-yl)-1H-imidazo[4,5-c]pyridin-1-yl)cyclohexyl)picolinamide]	> 1000
COc1ccc(Cl)cc1C(=O)N[C@@H]1CCCC[C@H](n2c(-c3c(F)cccc3OC)nc3cnc(-c4nc[nH]n4)cc32)[C@H]1O [Example 109, 5-chloro-N-((1R,2S,3S)-3-(2-(2-fluoro-6-methoxyphenyl)-6-(1H-1,2,4-triazol-3-yl)-1H-imidazo[4,5-c]pyridin-1-yl)-2-hydroxycycloheptyl)-2-methoxybenzamide]	500 to 1000
O=C(N[C@H]1CCC[C@@H](n2c(-c3ccccc3F)nc3cnc(-c4nc[nH]n4)cc32)C1)c1cc(Cl)cc[n+]1[O-] [Example 67, 4-chloro-2-(((1S,3R)-3-(2-(2-fluorophenyl)-6-(1H-1,2,4-triazol-3-yl)-1H-imidazo[4,5-c]pyridin-1-yl)cyclohexyl)carbamoyl)pyridine 1-oxide]	< 100
CN1C[C@H](NC(=O)c2cc(F)ccc2F)C[C@H](n2c(-c3ccccc3OCCO)nc3cnc(-n4nccn4)cc32)C1 [Example 155, 2,5-difluoro-N-((3R,5S)-5-(2-(2-(2-hydroxyethoxy)phenyl)-6-(2H-1,2,3-triazol-2-yl)-1H-imidazo[4,5-c]pyridin-1-yl)-1-methylpiperidin-3-yl)benzamide]	< 100
COc1ccc(Cl)cc1C(=O)N[C@H]1CCC[C@@H](n2c(-c3ccccc3C#N)nc3cnc(-c4nc[nH]n4)cc32)[C@@H]1O [Example 108, 5-chloro-N-((1S,2R,3R)-3-(2-(2-cyanophenyl)-6-(1H-1,2,4-triazol-3-yl)-1H-imidazo[4,5-c]pyridin-1-yl)-2-hydroxycyclohexyl)-2-methoxybenzamide]	< 100
CO[C@H]1C[C@@H](NC(=O)c2cc(F)ccn2)C[C@@H](n2c(-c3ccccc3F)nc3cnc(-c4nc[nH]n4)cc32)C1 [Example 115, 4-fluoro-N-((1S,3R,5S)-3-(2-(2-fluorophenyl)-6-(1H-1,2,4-triazol-3-yl)-1H-imidazo[4,5-c]pyridin-1-yl)-5-methoxycyclohexyl)picolinamide]	100 to 500
CN1C[C@@H](NC(=O)c2cc(Cl)ccc2OCCO)C[C@@H](n2c(-c3ccccc3F)nc3cnc(-c4nc[nH]n4)cc32)C1 [Example 151, 5-chloro-N-((3S,5R)-5-(2-(2-fluorophenyl)-6-(1H-1,2,4-triazol-3-yl)-1H-imidazo[4,5-c]pyridin-1-yl)-1-methylpiperidin-3-yl)-2-(2-hydroxyethoxy)benzamide]	100 to 500
CC(Oc1ccccc1-c1nc2cnc(-c3nc[nH]n3)cc2n1[C@@H]1CCC[C@H](NC(=O)c2cc(Cl)ccn2)C1)C(F)(F)F (stereo partly drawn) [Example 91, N-((1S,3R)-3-(6-(1H-1,2,4-triazol-3-yl)-2-(2-((1,1,1-trifluoropropan-2-yl)oxy)phenyl)-1H-imidazo[4,5-c]pyridin-1-yl)cyclohexyl)-4-chloropicolinamide]	> 1000
Nc1ccc(Cl)cc1C(=O)N[C@H]1CCC[C@@H](n2c(-c3ccccc3F)nc3cnc(-c4nc[nH]n4)cc32)C1 [Example 41, 2-amino-5-chloro-N-((1S,3R)-3-(2-(2-fluorophenyl)-6-(1H-1,2,4-triazol-3-yl)-1H-imidazo[4,5-c]pyridin-1-yl)cyclohexyl)benzamide]	100 to 500
CN1C[C@@H](NC(=O)c2cc(F)ccn2)C[C@@H](n2c(-c3ccccc3OCCO)nc3cnc(-c4ncccn4)cc32)C1 [Example 162, 4-fluoro-N-((3S,5R)-5-(2-(2-(2-hydroxyethoxy)phenyl)-6-(pyrimidin-2-yl)-1H-imidazo[4,5-c]pyridin-1-yl)-1-methylpiperidin-3-yl)picolinamide]	500 to 1000
CN1C[C@@H](NC(=O)c2cc(F)ccc2F)C[C@@H](n2c(-c3ccccc3OCCO)nc3cnc(-n4nccn4)cc32)C1 [Example 154, 2,5-difluoro-N-((3S,5R)-5-(2-(2-(2-hydroxyethoxy)phenyl)-6-(2H-1,2,3-triazol-2-yl)-1H-imidazo[4,5-c]pyridin-1-yl)-1-methylpiperidin-3-yl)benzamide]	> 1000
